In patent US20140005103A1, “SULFONAMIDE DERIVATIVES AND METHODS OF USE THEREOF FOR IMPROVING THE PHARMACOKINETICS OF A DRUG” (Merck, Sharp & Dohme Corp., priority 2012, published 2014) one finds IC50 data, which are given here for ten compounds.

One assay concerns the target T1, human CYP11B2 (Homo sapiens, UniProt P19099).
T1 construct: expressed in transfected cells
T1 sequence (P19099 25-503): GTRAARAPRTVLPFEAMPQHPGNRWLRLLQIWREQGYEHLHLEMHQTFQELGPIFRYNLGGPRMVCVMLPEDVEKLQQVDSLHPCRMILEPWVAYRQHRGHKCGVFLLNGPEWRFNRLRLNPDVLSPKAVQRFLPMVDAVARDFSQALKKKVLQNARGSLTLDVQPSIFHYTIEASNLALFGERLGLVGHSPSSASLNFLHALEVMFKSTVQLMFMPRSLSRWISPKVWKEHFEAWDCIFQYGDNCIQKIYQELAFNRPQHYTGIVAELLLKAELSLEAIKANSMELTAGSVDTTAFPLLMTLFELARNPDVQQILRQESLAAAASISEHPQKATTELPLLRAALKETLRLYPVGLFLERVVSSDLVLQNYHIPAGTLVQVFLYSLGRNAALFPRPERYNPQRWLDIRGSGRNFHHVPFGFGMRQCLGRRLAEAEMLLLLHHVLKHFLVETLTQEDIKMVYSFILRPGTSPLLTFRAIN
The assay is described as follows: IC50 vs CYP11B2 by aldosterone synthesis in V79 cells. The class given is cell-based. The settings on record: V79 cells expressing human CYP11B2, 750 nM DOC, aldosterone HTRF; test concentrations 0.5-10000 nM. As for the experimental part:
Determination of IC50 vs CYP11B1/CYP11B2 by Measurement of Cortisol/Aldosterone Synthesis
This assay was performed in a standard 384-well plate design using cultured V79 cells stably expressing human CYP11B1 or human CYP11B2. Test compounds at 10 concentrations (for example, 10000, 3333.3, 1111.1, 370.4, 123.5, 41.2, 13.7, 4.6, 1.5 and 0.5 nM) were added in 384-well plate after the cell-seeding procedure. The incubation substrate contains 1500 nM RSS for CYP11B1 assay/750 nM DOC for CYP11B2 assay. The
Cortisol/Aldosterone production of cell culture supernatant was determined by Cortisol/Aldosterone HTRF kit after for about 15 hours incubation at RT (protect from light). IC50 values were calculated from the percent inhibition observed for each test compound at 10 concentrations.
The assay plate was read using Envision (Perkin Elmer, Waltham, Mass.) at 665 nm and 590 nm (using Filter Barcode of 217#, 205#; Mirror Barcode of 446#).
Data are analyzed using Assay Data Analyzer. All ratio data (665 nm/590 nm) are back calculated according to the standard curve, resulting in Cortisol/Aldosterone concentrations. IC50 values are reported as the Inflection Point (IP) of a four parameter fit of the titration data.
The following equation was used to calculate the % inhibition:
% Activity=100×{1−(Sample_back calculated Cortisol/Aldosterone concentration−LC_back calculated Cortisol/Aldosterone concentration)/(HC_back calculated Cortisol/Aldosterone concentration−LC_back calculated Cortisol/Aldosterone concentration)}

The target in another assay is T2, CYP2C9 (Homo sapiens, UniProt P11712).
T2 construct: 0.1 mg/mL protein human liver microsomes (BD Gentest); tissue BD Gentest; host or cells: human liver microsomes
T2 sequence (P11712 whole entry): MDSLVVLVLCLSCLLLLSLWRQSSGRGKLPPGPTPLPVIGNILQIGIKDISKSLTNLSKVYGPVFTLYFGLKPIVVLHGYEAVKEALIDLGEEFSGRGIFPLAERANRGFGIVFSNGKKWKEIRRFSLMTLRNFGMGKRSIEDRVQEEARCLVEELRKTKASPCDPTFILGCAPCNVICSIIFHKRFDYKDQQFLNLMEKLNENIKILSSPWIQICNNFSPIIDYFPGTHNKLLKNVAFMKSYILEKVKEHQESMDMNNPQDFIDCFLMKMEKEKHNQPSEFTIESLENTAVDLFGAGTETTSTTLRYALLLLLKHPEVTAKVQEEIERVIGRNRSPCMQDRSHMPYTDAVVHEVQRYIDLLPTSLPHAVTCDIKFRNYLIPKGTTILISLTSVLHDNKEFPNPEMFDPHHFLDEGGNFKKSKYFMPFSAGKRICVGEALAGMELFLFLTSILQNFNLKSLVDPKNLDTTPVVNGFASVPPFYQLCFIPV
The assay is described as follows: Cocktail CYP assay, diclofenac 4'-hydroxylation. The settings on record: human liver microsomes, 5 μM diclofenac; test concentrations up to 10 μM. It counts as in vitro ADME.

Another assay has as its target T3, human CYP11B1 (Homo sapiens, UniProt P15538).
T3 construct: expressed in transfected cells
T3 sequence (P15538 25-503): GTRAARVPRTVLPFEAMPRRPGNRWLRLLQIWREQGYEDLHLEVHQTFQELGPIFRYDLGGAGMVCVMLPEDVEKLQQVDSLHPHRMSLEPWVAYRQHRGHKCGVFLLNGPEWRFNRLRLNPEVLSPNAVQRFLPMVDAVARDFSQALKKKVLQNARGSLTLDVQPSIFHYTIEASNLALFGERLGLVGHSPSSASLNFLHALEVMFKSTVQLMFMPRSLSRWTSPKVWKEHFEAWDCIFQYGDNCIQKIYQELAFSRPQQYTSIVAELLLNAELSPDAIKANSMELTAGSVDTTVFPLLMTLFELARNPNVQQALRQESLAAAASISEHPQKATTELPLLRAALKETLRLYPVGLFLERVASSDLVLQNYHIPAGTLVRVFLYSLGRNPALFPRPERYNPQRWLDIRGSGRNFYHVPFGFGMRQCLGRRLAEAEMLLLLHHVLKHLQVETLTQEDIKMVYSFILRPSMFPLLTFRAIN
As to the kind of experiment: IC50 vs CYP11B1 by cortisol synthesis in V79 cells. It counts as cell-based. Particulars: V79 cells expressing human CYP11B1, 1500 nM RSS, cortisol HTRF; test concentrations 0.5-10000 nM. Summed up:
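V79 cells stably expressing human enzyme exposed to 10 compound concentrations with substrate 1500 nM RSS (CYP11B1) or 750 nM DOC (CYP11B2), ~15 h at RT in dark. Supernatant cortisol or aldosterone quantified by HTRF against standard curve; IC50 as inflection point of four-parameter fit.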

Consider `C[C@H](c1ccc(F)cc1)n1cncc1CN1CCN(S(=O)(=O)c2cnc(NCC(F)CN)s2)CC1` (stereo partly drawn) [Compound 17], for which the IC50 against human CYP11B2 was 9350 nM; against CYP2C9, 2450 nM; at human CYP11B1 it was more than 10000 nM.

Turning to `C[C@H](c1ccc(F)cc1)n1cncc1CN1CCN(S(=O)(=O)c2cncc(N3CCNCC3)c2)CC1` [Compound 29], the IC50 at human CYP11B2 was 4370 nM; on CYP2C9, more than 10000 nM; against human CYP11B1, 1440 nM.

As to `C[C@H](c1ccc(F)cc1)n1cncc1C1COCC2CN(S(=O)(=O)c3cnc(Nc4ccccn4)s3)CCN21` (stereo partly drawn) [Compound 40], the IC50 was 3900 nM at human CYP11B2, 357 nM at CYP2C9 and 1150 nM on human CYP11B1.

Take `C[C@H](c1ccc(F)cc1)n1cncc1CN1CCN(S(=O)(=O)c2cnc(N3C[C@@H]4C[C@@H](O)CN4C[C@@H]3C)s2)CC1` [Compound 21]: the IC50 was more than 10000 nM against human CYP11B2, 1160 nM on CYP2C9 and 3920 nM against human CYP11B1.

On to `C[C@H](c1ccc(F)cc1)n1cncc1CN1CCN(S(=O)(=O)c2cnc(N3CCNCC3)s2)CC1` [Compound 1], for which the IC50 stood at 1720 nM against human CYP11B2, 2300 nM against CYP2C9 and 1770 nM at human CYP11B1.

For `C[C@H](c1ccc(F)cc1)n1cncc1C1C(=O)OCC2CN(S(=O)(=O)c3cnc(Nc4ccc(C(F)(F)F)cn4)s3)CCN21` (stereo partly drawn) [Compound 39], the IC50 on human CYP11B2 came out at 2470 nM; against CYP2C9, 4700 nM; against human CYP11B1 it was 2480 nM.

`CN1CCN(c2ncc(S(=O)(=O)N3CCN(Cc4cncn4CCOc4ccc(Cl)cc4)CC3)s2)CC1` [Compound 32]: the IC50 at human CYP11B2 was 1030 nM; on CYP2C9, 1560 nM; on human CYP11B1 it was 1580 nM.

For `C[C@H](c1ccc(F)cc1)n1cncc1CN1CCN(S(=O)(=O)c2cnc(N3CCN4C[C@H](O)C[C@H]4C3=O)s2)CC1` [Compound 18], the IC50 against human CYP11B2 worked out at 4580 nM; at CYP2C9, 2300 nM; on human CYP11B1 it was 2590 nM.

On to `C[C@H](c1ccc(F)cc1)n1cncc1CN1CCN(S(=O)(=O)c2cnc(N3CCN(C4CCN(C)CC4)CC3)s2)CC1` [Compound 9], for which the IC50 was 3920 nM at human CYP11B2, 4120 nM on CYP2C9 and 2040 nM against human CYP11B1.

Turning to `C[C@H](c1ccc(F)cc1)n1cnnc1CN1CCN(S(=O)(=O)c2cnc(N3CCN4C[C@H](O)C[C@H]4C3)s2)CC1` [Compound 42], the IC50 against human CYP11B2 was more than 10000 nM; on CYP2C9, more than 10000 nM; against human CYP11B1, 7800 nM.
